≈ marks a conversion by molar mass, not a printed value. Read-outs that look alike come from different tables or passages of the source.
Legend:
S. aureus ATCC 25923 = experiment: Antimicrobial susceptibility (MIC), S. aureus; type: cell-based, Staphylococcus aureus; conditions: for MIC: Staphylococcus aureus, ATCC25923, S. aureus ATCC 25923, mean (n = 3)
Protocol: (§1) The susceptibility of bacterial strains S. aureus (ATCC 25923), E. coli (ATCC 25922) and P. aeruginosa (ATCC 27853) to antibiotics and compounds was determined according to previously reported protocols. Additional antimicrobial evaluation against MRSA (ATCC 43300) and C. albicans (ATCC 90028) was undertaken at the Community for Open Antimicrobial Drug Discovery at The University of Queensland (Australia) according to their standard protocols as reported previously.

P. aeruginosa ATCC 27853 [1] = experiment: Antimicrobial susceptibility (MIC), P. aeruginosa; type: cell-based; conditions: Pseudomonas aeruginosa
Protocol: as §1

E. coli ATCC 25922 = experiment: Antimicrobial susceptibility (MIC), E. coli; type: cell-based; conditions: Escherichia coli, ATCC25922, mean (n = 3)
Protocol: as §1

C. albicans ATCC 90028 = experiment: Antifungal susceptibility (MIC), C. albicans; type: cell-based; conditions: Candida albicans, ATCC90028, mean (n = 2)
Protocol: as §1

human red blood cells = experiment: Hemolytic assay; type: cell-based; conditions: mean (n = 2)
Protocol: Hemolysis assays were conducted according to previously reported protocols.

P. aeruginosa ATCC 27853 [2] = experiment: Antibiotic potentiation (MIC of antibiotics in the presence of synergizing compounds), P. aeruginosa; type: cell-based, Pseudomonas aeruginosa; conditions: concentration required to restore doxycycline activity at 2 µg/mL (4.5 µM) against P. aeruginosa ATCC 27853
MRSA ATCC 43300 = experiment: Antimicrobial susceptibility (MIC), MRSA; type: cell-based; conditions: Staphylococcus aureus, read-out: MIC MRSA
Protocol: as §1

[3] = Cytotoxicity assay HEK293; type: cell-based, human; conditions: human, HEK293 cells, mean (n = 2), read-out: Cyto. IC50 (concentration of compound at 50% cytotoxicity)
Protocol: Cytotoxicity assays were conducted according to previously reported protocols.

[4] = ATCC27853, mean (n = 3), read-out: MIC P. a

SMILES | MIC (S. aureus ATCC 25923) [µM] | MIC (P. aeruginosa ATCC 27853 [1]; [4]) [µM] | MIC (E. coli ATCC 25922) [µM] | MIC (C. albicans ATCC 90028) [µM] | Hem. HC10 (concentration of compound at 10% hemolytic activity) (human red blood cells) [µM] | Conc (µM) for Potentiation of doxycycline (P. aeruginosa ATCC 27853 [2]) [µM] | MIC (MRSA ATCC 43300; MRSA ATCC 43300, mean (n = 2)) [µM] | IC50 [3] [µM] | MIC (P. aeruginosa ATCC 27853 [1]; ATCC27853, read-out: observed MIC of doxycycline) [µg/mL] | S. aureus and MRSA MIC (range over both strains) (S. aureus ATCC 25923; S. aureus ATCC 25923 and MRSA, summary range in text) [µM] | MIC (MRSA ATCC 43300) [µM]
Cc1ccc2[nH]cc(C(=O)C(=O)NCCCNCCCCCCCCCCCCNCCCNC(=O)C(=O)c3c[nH]c4ccc(C)cc34)c2c1.O=C(O)C(F)(F)F.O=C(O)C(F)(F)F [Compound 20e, N^1,N^12-Bis(3-(2-(5-methyl-1H-indol-3-yl)-2-oxoacetamido)propyl)dodecane-1,12-diaminium 2,2,2-trifluoroacetate] | 3.12 | 800 | 12.5 | 2.2 | 2.0 | 400 |  |  |  |  | 
Cc1ccc2[nH]cc(C(=O)C(=O)NCCCNCCCCCCNCCCNC(=O)C(=O)c3c[nH]c4ccc(C)cc34)c2c1.O=C(O)C(F)(F)F.O=C(O)C(F)(F)F [Compound 20a, N^1,N^6-Bis(3-(2-(5-methyl-1H-indol-3-yl)-2-oxoacetamido)propyl)hexane-1,6-diaminium 2,2,2-trifluoroacetate] | 12.5 | 200 | 50 | > 39 |  | 12.5 | ≤ 0.3 | > 39 |  |  | 
CC/C(=C(\c1ccccc1)c1ccc(OCCN(C)C)cc1)c1ccccc1 [tamoxifen, reference compound] |  |  |  |  |  |  |  | 24 |  |  | 
O=C(NCCCNCCCCCCCNCCCNC(=O)C(=O)c1c[nH]c2ccccc12)C(=O)c1c[nH]c2ccccc12.O=C(O)C(F)(F)F.O=C(O)C(F)(F)F [Compound 17b, N^1,N^7-Bis(3-(2-(1H-indol-3-yl)-2-oxoacetamido)propyl)heptane-1,7-diaminium 2,2,2-trifluoroacetate] | 25 | > 200 | 25 | > 39 | >39 | 100 | 39 | 31 |  |  | 
O=C(NCCCNCCCCCCCNCCCNC(=O)C(=O)c1c[nH]c2c(F)cccc12)C(=O)c1c[nH]c2c(F)cccc12.O=C(O)C(F)(F)F.O=C(O)C(F)(F)F [Compound 21b, N^1,N^7-Bis(3-(2-(7-fluoro-1H-indol-3-yl)-2-oxoacetamido)propyl)heptane-1,7-diaminium 2,2,2-trifluoroacetate] | 7.3 | > 200 | > 200 | 38 | >38 | 7.3 | 18.8 | 11 |  |  | 
OC(Cn1cncn1)(Cn1cncn1)c1ccc(F)cc1F [fluconazole, reference compound] |  |  |  | 0.4 (≈ 0.123 µg/mL) |  |  |  |  |  |  | 
COc1ccc2[nH]cc(C(=O)C(=O)NCCCNCCCCCCCNCCCNC(=O)C(=O)c3c[nH]c4ccc(OC)cc34)c2c1.O=C(O)C(F)(F)F.O=C(O)C(F)(F)F [Compound 19b, N^1,N^7-Bis(3-(2-(5-methoxy-1H-indol-3-yl)-2-oxoacetamido)propyl)heptane-1,7-diaminium 2,2,2-trifluoroacetate] | 57 | > 200 | > 200 | 37 | >37 | 114 | 37 | > 37 |  |  | 
Cc1ccc2[nH]cc(C(=O)C(=O)NCCCNCCCCCCCCNCCCNC(=O)C(=O)c3c[nH]c4ccc(C)cc34)c2c1.O=C(O)C(F)(F)F.O=C(O)C(F)(F)F [Compound 20c, N^1,N^8-Bis(3-(2-(5-methyl-1H-indol-3-yl)-2-oxoacetamido)propyl)octane-1,8-diaminium 2,2,2-trifluoroacetate] | 3.12 | 800 | 12.5 | > 37 |  | 400 | 4.7 | > 37 |  |  | 
Cc1ccc2[nH]cc(C(=O)C(=O)NCCCNCCCCCCCCCCNCCCNC(=O)C(=O)c3c[nH]c4ccc(C)cc34)c2c1.O=C(O)C(F)(F)F.O=C(O)C(F)(F)F [Compound 20d, N^1,N^10-Bis(3-(2-(5-methyl-1H-indol-3-yl)-2-oxoacetamido)propyl)decane-1,10-diaminium 2,2,2-trifluoroacetate] | 3.12 | 800 | 12.5 | 9 |  | 400 | ≤ 0.28 | > 36 |  |  | 
O=C(N[C@H](CO)[C@H](O)c1ccc([N+](=O)[O-])cc1)C(Cl)Cl [chloramphenicol, reference compound] | 1.5 to 3 (≈ 0.485 to 0.969 µg/mL) | > 200 | > 200 |  |  |  |  |  |  |  | 
C[C@H]1c2cccc(O)c2C(=O)C2=C(O)[C@]3(O)C(=O)C(C(N)=O)=C(O)[C@@H](N(C)C)[C@@H]3[C@@H](O)[C@@H]21 [doxycycline, reference compound] |  | 50 | 25 (≈ 11.1 µg/mL) |  |  |  |  |  | 20 |  | 
CC[C@H]1OC(=O)[C@H](C)[C@@H](O[C@H]2C[C@@](C)(OC)[C@@H](O)[C@H](C)O2)[C@H](C)[C@@H](O[C@@H]2O[C@H](C)C[C@H](N(C)C)[C@H]2O)[C@](C)(O)C[C@@H](C)C(=O)[C@H](C)[C@@H](O)[C@]1(C)O [erythromycin, reference compound] |  | > 200 | > 200 |  |  |  |  |  |  |  | 
CCn1cc(C(=O)O)c(=O)c2ccc(C)nc21 [nalidixic acid, reference compound] |  | > 200 | > 200 |  |  |  |  |  |  |  | 
CN(C)c1ccc(O)c2c1C[C@H]1C[C@H]3[C@H](N(C)C)C(O)=C(C(N)=O)C(=O)[C@@]3(O)C(O)=C1C2=O [minocycline, reference compound] |  | 70 |  |  |  |  |  |  |  |  | 
Cc1cccc2c(C(=O)C(=O)NCCCNCCCCCCCCCCNCCCNC(=O)C(=O)c3c[nH]c4c(C)cccc34)c[nH]c12.O=C(O)C(F)(F)F.O=C(O)C(F)(F)F [Compound 23d, N^1,N^10-Bis(3-(2-(7-methyl-1H-indol-3-yl)-2-oxoacetamido)propyl)decane-1,10-diaminium 2,2,2-trifluoroacetate] | 7.1 | > 230 | 14.1 | 18 |  | 230 | ≤ 0.28 | > 36 |  |  | 
[H]/N=C(/N)N[C@H]1[C@H](O)[C@@H](O)[C@H](O[C@@H]2O[C@@H](C)[C@](O)(C=O)[C@H]2O[C@@H]2O[C@@H](CO)[C@H](O)[C@@H](O)[C@@H]2NC)[C@@H](N/C(N)=N\[H])[C@@H]1O [streptomycin, reference compound] | 21.5 (≈ 12.5 µg/mL) | 21.5 | 21.5 (≈ 12.5 µg/mL) |  |  |  |  |  |  |  | 
Cc1ccc2[nH]cc(C(=O)C(=O)NCCCNCCCCCCCNCCCNC(=O)C(=O)c3c[nH]c4ccc(C)cc34)c2c1.O=C(O)C(F)(F)F.O=C(O)C(F)(F)F [Compound 20b, N^1,N^7-Bis(3-(2-(5-methyl-1H-indol-3-yl)-2-oxoacetamido)propyl)heptane-1,7-diaminium 2,2,2-trifluoroacetate] | 6.25 | 200 | 50 | > 38 | >38 | 12.5 | ≤ 0.3 |  |  |  | 
COc1cccc2c(C(=O)C(=O)NCCCNCCCCCCCCCCCCNCCCNC(=O)C(=O)c3c[nH]c4c(OC)cccc34)c[nH]c12 [Compound 22e] | 3.12 (≈ 2.24 µg/mL) | 800 | 12.5 (≈ 8.96 µg/mL) | ≤ 0.26 | 0.93 | 400 | ≤ 0.26 |  |  | 0.26 to 3.125 | 
O=C(NCCCNCCCCCCNCCCNC(=O)C(=O)c1c[nH]c2ccccc12)C(=O)c1c[nH]c2ccccc12.O=C(O)C(F)(F)F.O=C(O)C(F)(F)F [Compound 17a, N^1,N^6-Bis(3-(2-(1H-indol-3-yl)-2-oxoacetamido)propyl)hexane-1,6-diaminium 2,2,2-trifluoroacetate] | 12.5 | > 200 | 50 | > 40 |  | 12.5 | > 40 |  |  |  | 
COc1cccc2c(C(=O)C(=O)NCCCNCCCCCCCCNCCCNC(=O)C(=O)c3c[nH]c4c(OC)cccc34)c[nH]c12 [Compound 22c] | 25 (≈ 16.5 µg/mL) | 800 | 200 (≈ 132 µg/mL) | > 36 | >36 | 200 | 4.5 (≈ 2.97 µg/mL) |  |  |  | 
CN[C@H](CC(C)C)C(=O)N[C@H]1C(=O)N[C@@H](CC(N)=O)C(=O)N[C@H]2C(=O)N[C@H]3C(=O)N[C@H](C(=O)N[C@H](C(=O)O)c4cc(O)cc(O)c4-c4cc3ccc4O)[C@H](O)c3ccc(c(Cl)c3)Oc3cc2cc(c3O[C@@H]2O[C@H](CO)[C@@H](O)[C@H](O)[C@H]2O[C@H]2C[C@](C)(N)[C@H](O)[C@H](C)O2)Oc2ccc(cc2Cl)[C@H]1O [vancomycin, reference compound] |  |  |  |  |  |  |  |  |  |  | 0.7 (≈ 1.01 µg/mL)
